Results from PMC9448818 (Translational Psychiatry, 2022).

Assay: Dose-adjusted serum concentrations of drug and metabolite (LC-MS/MS) by CYP2C19 and CYP2D6 metabolizer group
Assay type: in vivo, human
Conditions: for B, ARI concentrations in serum, CYP2D6 IM+PM / B, DHA concentrations in serum, CYP2D6 IM+PM: vs NM, dose-adjusted
Text: The 16-week study protocol consisted of two phases following screening and baseline visits. […] Blood samples were collected on Weeks 2, 10, and 16 to measure medication levels and on Week 4 for pharmacogenetic analyses. The methods used for the quantification of serum levels of drug and metabolite concentrations is described in the Supplementary Methods.
Serum concentrations were adjusted for dosage (i.e., ng/mL/mg). Sampling time (i.e., hours since the last dose) was entered as a covariate in the regression models to account for when the medication was taken.
The CYP2C19 metabolizer group was not included as a fixed effect covariate, as CYP2C19 is not known to be involved in the metabolism of ARI. […]
Collection of blood samples and quantification of serum drug and metabolite concentrations Participants self-reported the time at which the last dosage of the study medication was taken during the collection of the blood samples. […]
major metabolites, (S-DCT) and (DHA), were performed at the CAMH Clinical Laboratory using LC-MS/MS technology. Briefly, a mix of deuterated internal standards (Cerilliant) was added to 100 µL of each serum specimen, calibrator (Cerilliant) and quality control (MassCheck Antidepressants/Neuroleptics, Level 1 and Level 2). Proteins were precipitated with 300 µL of 9:1 Acetonitrile:Methanol (Sigma-Aldrich) followed by 5 min centrifugation at 9000 rpm. 25 µL of each supernatant was diluted with 200 µL of 0.1% Formic acid (Sigma-Aldrich) and then analyzed on the LC-MS/MS platform consisting of ThermoFisher TSQ Quantum Ultra mass spectrometer coupled with ThermoFisher Surveyor LC pump and HTC PAL autosampler fitted with a Kinetex F5 2.6 µm, 100 x 2.1 mm column (Phenomenex). Six minute gradient elution with 0.1% Formic Acid (mobile phase A) and Acetonitrile (mobile phase B) was applied. Collision energies ranged from 14 to […]
calibration curve ranging from 10 to 1000 ng/mL for each analyte.
Vendor nominal means for quality controls were used to assess the assay accuracy for each of the four analytes […]
precision was considered acceptable assay performance.
Data was analyzed with ThemoFisher XCalibur software.

B, ARI concentrations in serum, CYP2D6 IM+PM (Week 10, ESC+ARI arm)	B, ARI concentrations in serum, CYP2D6 IM+PM (Week 16, ESC+ARI arm)	lower DHA, CYP2D6 IM + PMs relative to NMs (Week 10, ESC + ARI)	B, DHA concentrations in serum, CYP2D6 IM+PM (Week 10, ESC+ARI arm)	B, DHA concentrations in serum, CYP2D6 IM+PM (Week 16, ESC+ARI arm)	Structure (SMILES)
-2.48	1.54	–	–	–	O=C1CCc2ccc(OCCCCN3CCN(c4cccc(Cl)c4Cl)CC3)cc2N1 [ARI, Aripiprazole]
–	–	17.4%	-0.99	-0.47	O=c1ccc2ccc(OCCCCN3CCN(c4cccc(Cl)c4Cl)CC3)cc2[nH]1 [DHA, dehydroaripiprazole]
